In patent publication US8673917B2, “2-heteroaryl-pyrrolo [3,4-C]pyrrole derivatives, and use thereof as SCD inhibitors” (Sanofi, priority 2008, dated 2014):
pIC50: −log10 of the molar value. Where a name gives a salt, the structure may show the parent alone.

Molecular target: T1, SCD1 (Rattus norvegicus, UniProt P07308)
T1 construct: from tissue; host or cells: liver microsomes of male Wistar rats fed a carbohydrate-rich, low-fat diet
T1 sequence (P07308 1-358): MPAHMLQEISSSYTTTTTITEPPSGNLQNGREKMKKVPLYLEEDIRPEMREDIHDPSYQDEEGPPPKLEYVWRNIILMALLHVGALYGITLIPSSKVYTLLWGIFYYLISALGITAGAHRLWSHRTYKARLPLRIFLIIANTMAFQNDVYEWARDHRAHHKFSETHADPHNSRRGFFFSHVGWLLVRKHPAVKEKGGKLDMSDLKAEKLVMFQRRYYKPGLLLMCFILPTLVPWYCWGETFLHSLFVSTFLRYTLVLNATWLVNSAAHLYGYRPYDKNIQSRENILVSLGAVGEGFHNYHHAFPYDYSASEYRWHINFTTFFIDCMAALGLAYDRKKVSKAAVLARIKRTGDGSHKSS
Test: Stearoyl-CoA desaturase (SCD1) activity assay with rat liver microsomes, TLC with 1-14C-labeled stearic acid
Assay type: biochemical
Conditions: for pIC50: SCD1 activity; for inhibition at 10 µM: inhibition of SCD1 activity at 10 μM/l
Description: The efficacy of the inventive compounds of the formula I was tested with microsomal enzymes in the following assay system:
The livers of male Wistar rats which (to induce the expression of SCD1) had been fed with a carbohydrate-rich, low-fat diet were homogenized with a Potter tissue homogenizer and differential centrifugation in a buffer which contained 250 mM/l of sucrose and 5 mM/l of HEPES (pH 7.0). The resuspended microsome fraction was stored at −80° C. The stearoyl-CoA desaturase activity was determined in a thin-film chromatography assay with 1-^14C-labeled stearic acid. In short, the particular inventive compounds (in DMSO in a final concentration of 1% [v/v]) were incubated with 15 μg of the rat liver microsomes in 200 μl of assay buffer (6 mM/l of MgCl2, 250 mM/l of sucrose, 150 mM/l of KCl, 40 mM/l of NaF, 100 mM/l of Na2HPO4 (pH7.4), 1.3 mM/l of ATP, 1.5 mM/l of reduced glutathione, 60 uM/l of CoA, 0.33 mM/l of nicotinamide and 0.94 mM/l of NADH) at room temperature for 10 min. 0.5 μCi [1-^14C]-stearic acid (55 mCi/mmol) was added, and the mixture was incubated at 37° C. for 1 h. The radioactively labeled fatty acids were subsequently hydrolyzed at 65° C. with 2.5 M KOH/MeOH:H2O (4:1) for 4 h, protonated with 280 μl of formic acid and extracted with 500 μl of hexane. The TLC plates were immersed into 10% AgNO3 and heat-activated before use. 150 μl of the hexane phase were applied to the plates, and the TLC plates were developed in buffer (chloroform:methanol:acetic acid:water [90:8:1:0.8]) and dried. The plates were read off in a phosphoimager to quantify the SCD1 activity.
The person skilled in the art can modify this assay in various aspects to determine the inhibition of the stearoyl-CoA desaturase activity.

Row | Compound | pIC50 | inhibition at 10 µM [%]
1 | O=C(c1ccccc1C(F)(F)F)N1CC2=C(C1)CN(c1ccc(OCc3ccccc3)cn1)C2 [Example 1, [5-(5-Benzyloxypyridin-2-yl)-3,4,5,6-tetrahydro-1H-pyrrolo[3,4-c]pyrrol-2-yl](2-trifluoromethylphenyl)methanone] | 6.88 | 80
2 | O=C(c1ccccc1C(F)(F)F)N1CC2=C(C1)CN(c1ccc(OCc3nccs3)nn1)C2 [Example 2, {5-[6-(Thiazol-2-ylmethoxy)pyridazin-3-yl]-3,4,5,6-tetrahydro-1H-pyrrolo[3,4-c]pyrrol-2-yl}-(2-trifluoromethylphenyl)methanone] | 6.10 | 86
3 | O=C(c1ccccc1C(F)(F)F)N1CC2=C(C1)CN(c1ccc(OCc3ccccc3)nn1)C2 [Example 3, [5-(6-Benzyloxpyridazin-3-yl)-3,4,5,6-tetrahydro-1H-pyrrolo[3,4-c]pyrrol-2-yl](2-trifluoromethylphenyl)methanone] | 8.14 | 100
4 | O=C(c1ccccc1C(F)(F)F)N1CC2=C(C1)CN(c1ccc(OCCc3ccccc3)nn1)C2 [Example 4, [5-(6-Phenethyloxypyridazin-3-yl)-3,4,5,6-tetrahydro-1H-pyrrolo[3,4-c]pyrrol-2-yl](2-trifluoromethylphenyl)methanone trifluoroacetate] | 7.36 | –
5 | O=C(c1ccccc1C(F)(F)F)N1CC2=C(C1)CN(c1ccc(OCCC3CC3)nn1)C2 [Example 5, {5-[6-(2-Cyclopropylethoxy)pyridazin-3-yl]-3,4,5,6-tetrahydro-1H-pyrrolo[3,4-c]pyrrol-2-yl}-(2-trifluoromethylphenyl)methanone trifluoroacetate] | 6.67 | –
6 | O=C(c1ccccc1C(F)(F)F)N1CC2=C(C1)CN(c1ccc(OCc3cscn3)nn1)C2 [Example 6, {5-[6-(Thiazol-4-ylmethoxy)pyridazin-3-yl]-3,4,5,6-tetrahydro-1H-pyrrolo[3,4-c]pyrrol-2-yl}-(2-trifluoromethylphenyl)methanone trifluoroacetate] | 6.32 | –
7 | O=C(c1ccccc1C(F)(F)F)N1CC2=C(C1)CN(c1ccc(OCC3CCOCC3)nn1)C2 [Example 7, {5-[6-(Tetrahydropyran-4-ylmethoxy)pyridazin-3-yl]-3,4,5,6-tetrahydro-1H-pyrrolo[3,4-c]pyrrol-2-yl}-(2-trifluoromethylphenyl)methanone trifluoroacetate] | 5.15 | –
8 | O=C(c1ccccc1C(F)(F)F)N1CC2=C(C1)CN(c1ccc(OCc3ccccc3)nn1)C2 [Example 8, 5-(6-Benzyloxypyridazin-3-yl)-3,4,5,6-tetrahydro-1H-pyrrolo[3,4-c]pyrrol-2-yl](2-trifluoromethylphenyl)methanone hydrochloride] | 8.07 | –
9 | O=C(c1ccccc1C(F)(F)F)N1CC2=C(C1)CN(c1ccc(OCc3ccccn3)nn1)C2 [Example 9, 5-[6-(Pyridin-2-ylmethoxy)pyridazin-3-yl]-3,4,5,6-tetrahydro-1H-pyrrolo[3,4-c]pyrrol-2-yl}-(2-trifluoromethylphenyl)methanone hydrochloride] | 5.87 | –
